The term EC50 denotes the concentration needed to bring the measured effect to its halfway point.

One experiment deals with T1, human TREM2 (Homo sapiens, UniProt Q9NZC2).
T1 construct: expressed in transfected cells; host or cells: HEK293T
T1 sequence (Q9NZC2 19-230): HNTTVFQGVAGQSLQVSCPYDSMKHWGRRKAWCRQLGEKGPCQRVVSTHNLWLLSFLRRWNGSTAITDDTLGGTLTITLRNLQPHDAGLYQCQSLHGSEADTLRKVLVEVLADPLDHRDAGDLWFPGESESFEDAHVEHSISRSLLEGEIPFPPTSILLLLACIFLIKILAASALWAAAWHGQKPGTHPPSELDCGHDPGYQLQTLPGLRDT
T1 sequence (O43914 22-113 partner): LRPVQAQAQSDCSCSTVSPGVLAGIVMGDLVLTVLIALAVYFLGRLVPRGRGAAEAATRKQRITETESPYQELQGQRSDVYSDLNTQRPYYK
The experiment in a line: TREM2 agonist potency by cellular phosphorylation of Syk (AlphaLisa) in HEK293T-hTREM2 cells. The experiment is classed as cell-based. The note with it: HEK293 cells expressing human TREM2 and DAP12, Table D. As for the experimental part:
In Vitro Measurement of Triggering Receptor Expressed on Myeloid Cells 2 Activity Using Cellular Phosphorylation of Spleen Tyrosine Kinase (“Syk”) Assays
Measurement of TREM2 agonist potency was done using a HEK cell line expressing human TREM2 and DAP12 (HEK293T-hTREM2 cells). Binding of small molecules to, and activation of, TREM2 increases the phosphorylation of Syk. The resultant levels of Syk phosphorylation are measured using a commercial AlphaLisa reagent kit. To perform the assay, HEK-hTREM2 cells were plated at 14,000 cells per well in a 384 well plate, in 25 μL of complete growth media and incubated at 37° C., 5% CO2 for 20-24 hours.
Prior to the assay, test compounds were diluted in the 384 well plates in assay buffer and allowed to equilibrate for 30 minutes. Growth media was removed from cell plates by inversion on blotting paper, and 25 μL of test articles in assay buffer was added to cells. Cells were incubated for 45 minutes at room temperature. After 45 minutes, assay buffer was removed and 10 μL of lysis buffer was added. Plates were shaken for 20 minutes at 350 RPM at room temperature. After complete lysis, AlphaLisa reagents were added to the lysate, and fluourescence intensity was measured using a Perkin Elmer Envision plate reader. Intensities were used to generate a standard curve, and % activation was calculated. Curve fitting was performed using Prism v9 software, log(agonist) vs response-variable slope (four parameters), and EC50s were calculated from the curve fit.
This assay may be used to test any of the compounds described herein to assess and characterize a compound's ability to act as an agonist of TREM2.
Background: In Alpha technology, singlet oxygen from a donor bead excites a nearby acceptor bead.
`Cc1cnc2c(-c3ccc(F)cc3F)nc(N3C[C@@H](c4cnn(C5CC5)c4)O[C@@H](C)C3)nc2n1` [Example 114, (2R,6S)-2-(1-cyclopropyl-1H-pyrazol-4-yl)-4-(4-(2,4-difluorophenyl)-7-methylpteridin-2-yl)-6-methylmorpholine] had an EC50 of 50 to 500 nM.
`Cc1cnc2c(-c3ccc(Cl)cc3F)nc(N3C[C@@H](C)O[C@@H](c4cnn(C5CC5)c4)C3)nc2n1` [Example 117, (2S,6R)-4-(4-(4-chloro-2-fluorophenyl)-7-methylpteridin-2-yl)-2-(1-cyclopropyl-1H-pyrazol-4-yl)-6-methylmorpholine]: the EC50 was below 50 nM.
As for `Cc1cnc2c(C34CC(C(F)(F)F)(C3)C4)nc(N3C[C@@H](c4cnn(C5CC5)c4)O[C@@H](C)C3)nc2n1` [Example 125, (2R,6S)-2-(1-cyclopropyl-1H-pyrazol-4-yl)-6-methyl-4-(7-methyl-4-(3-(trifluoromethyl)bicyclo[1.1.1]pentan-1-yl)pteridin-2-yl)morpholine], the EC50 was below 50 nM.
On the same count and under the same terms, the same measure for `Cc1cnc2c(C34CC(C(F)(F)F)(C3)C4)nc(N3C[C@@H](C)O[C@@H](c4cnn(C5CC5)c4)C3)nc2n1` [Example 126, (2S,6R)-2-(1-cyclopropyl-1H-pyrazol-4-yl)-6-methyl-4-(7-methyl-4-(3-(trifluoromethyl)bicyclo[1.1.1]pentan-1-yl)pteridin-2-yl)morpholine]: below 50 nM; for `Cc1nc2nc([C@H]3CCO[C@@H](c4cnn(C5CC5)c4)C3)nc(C34CC(C(C)C)(C3)C4)c2nc1C` [Example 127, 2-((2R,4S)-2-(1-cyclopropyl-1H-pyrazol-4-yl)tetrahydro-2H-pyran-4-yl)-4-(3-isopropylbicyclo[1.1.1]pentan-1-yl)-6,7-dimethylpteridine]: below 50 nM.
In the case of `Cc1cnc2c(-c3ccc(Cl)cc3F)nc([C@H]3C[C@@H](c4cnn(C5CC5)c4)O[C@@H](C)C3)nc2n1` [Example 128, 4-(4-chloro-2-fluorophenyl)-2-((2S,4R,6S)-2-(1-cyclopropyl-1H-pyrazol-4-yl)-6-methyltetrahydro-2H-pyran-4-yl)-7-methylpteridine], the EC50 was below 50 nM.
Turning to `Cc1cnc2c(-c3ccc(Cl)cc3F)nc([C@H]3C[C@@H](C)O[C@@H](c4cnn(C5CC5)c4)C3)nc2n1` [Example 129, 4-(4-chloro-2-fluorophenyl)-2-((2R,4S,6R)-2-(1-cyclopropyl-1H-pyrazol-4-yl)-6-methyltetrahydro-2H-pyran-4-yl)-7-methylpteridine], the EC50 lay in the range of 50 to 500 nM.
In turn, `Cc1cc([C@H]2C[C@@H](c3nc(-c4ccc(Cl)c(F)c4F)c4ncc(C)nc4n3)CCO2)ccn1` [Example 130, 4-(4-chloro-2,3-difluorophenyl)-7-methyl-2-((2R,4S)-2-(2-methylpyridin-4-yl)tetrahydro-2H-pyran-4-yl)pteridine] had a concentration giving a half-maximal response (EC50) below 50 nM.

Still in this experiment, the particulars now being: HEK293 cells expressing human TREM2 and DAP12, Table D-2.
Compound `Cc1nc2nc(N3C[C@@H](c4cnn(C(F)F)c4)O[C@@H](C4CC4)C3)nc(-c3ccc(F)cc3F)c2nc1C` (stereo in doubt) [Example I-1701, (2S,6R)-2-cyclopropyl-6-[1-(difluoromethyl)pyrazol-4-yl]-4-[4-(2,4-difluorophenyl)-6,7-dimethyl-pteridin-2-yl]morpholine] gave a concentration giving a half-maximal response (EC50) below 50 nM.
Turning to `Cc1nc2nc(N3C[C@@H](C4CC4)O[C@@H](c4cnn(C(F)F)c4)C3)nc(-c3ccc(F)cc3F)c2nc1C` (stereo in doubt) [Example I-1702, (2R,6S)-2-cyclopropyl-6-[1-(difluoromethyl)pyrazol-4-yl]-4-[4-(2,4-difluorophenyl)-6,7-dimethyl-pteridin-2-yl]morpholine], the 50% effective concentration (EC50) lay within 50 to 500 nM.
With `Cc1nc2nc(N3C[C@@H](C)O[C@@H](c4cnn(C5CC5)c4)C3)nc(-c3cc(C(F)F)c(F)cc3F)c2nc1C` (stereo in doubt) [Example I-1706, (2S,6R)-2-(1-cyclopropylpyrazol-4-yl)-4-[4-[5-(difluoromethyl)-2,4-difluoro-phenyl]-6,7-dimethyl-pteridin-2-yl]-6-methyl-morpholine], the EC50 was below 50 nM.

Source of the values: US20240309003A1, “HETEROCYCLIC COMPOUNDS AS TRIGGERING RECEPTOR EXPRESSED ON MYELOID CELLS 2 AGONISTS AND METHODS OF USE” (Vigil Neuroscience, Inc., priority 2021, published 2024).
